Data on 1 molecule can be found in patent US5122448A, “Assay of anti-Epstein-Barr virus nuclear antigen antibodies with synthetic polypeptides” (Scripps Clinic and Research Foundation, priority 1990, dated 1992).

Residues, ends and D or L forms follow the SMILES beside them.

Series [1] deals with anti-EBNA antibodies. Nature of the series: ELISA with polypeptide as solid phase antigen, anti-polypeptide activity of sera (OD405). The format is binding, human. Particulars: for OD405 × 10^3 obtained with Patient Antibodies to peptide: serum 1:20. Background: In an ELISA, binding on a coated surface is turned into a signal by an enzyme label.
Protocol: Briefly, microtiter wells (Costar, #3590, Cambridge, MA) were typically coated with individual polypeptides as antigens by adding 100 microliters (ul) of BBS [10 millimoler (mM) sodium borate (pH 8.3), 150 mM NaCl] containing polypeptide at a concentration of 10 micrograms per milliliter (ug/ml). Contact between the wells and antigen-containing solution was maintained for a predetermined time, typically 15 minutes, and at 20 degrees C., to form an antigen-coated solid phase. The solid and liquid phases were separated and the wells were washed three times with BBS.
Non-specific binding sites were blocked by admixing 200 microliters of 1% bovine serum albumin (BSA) in each well to form another solid/liquid phase admixture, and maintaining that solid/liquid phase admixture for 30 minutes, at 20 degrees C. The phases were separated and excess, unbound BSA was removed by washing three times with BBS.
The antibodies in human sera that immunoreacted with an adsored polypeptide were detected using an indicating means comprising alkaline phosphatase-conjugated goat anti-human Ig antibody (Tago, Burlington, Calif.). The antibodies in rabbit sera that immunoreacted with an adsorbed polypeptide were detected using an indicating means comprising alkaline phosphatase-conjugated goat anti-rabbit Ig antibody (Kirkegard & Perry Laboratories, Inc., Gaithersburg, MD). In either instance, 100 microliters of the indicating antibody diluted 1:300 in BBS were added per well to form a further solid/liquid phase composition. This solid-liquid phase composition was maintained for a predetermined time, one hour, for the formation of a reaction product between the human antibodies bound to the solid phase and the indicating means, and at 20 degrees C. The phases were separated, and the solid phase was washed 3 times with BBS.
Alkaline phosphatase-conjugated antibody bound to polypeptide specific antibody was detected by spectrophotometrically measuring the enzymatic hydrolysis of p-nitrophenyl phosphate to p-nitrophenol. Briefly, 100 microliters of p-nitrophenyl phosphate [1 milligram per milliliter in 2 mM MgCl 2, (pH 9.8), 50 mM sodium carbonate] were added to each well. The enzymatic reaction was allowed to proceed 1 hour and then the optical density at 405 nm was determined in a [sequence] spectrophotometer available from Flow Laboratories, Inglewood, Calif.
In series [2] the test system is rabbit anti-polypeptide antibody to polypeptide P62. Nature of the series: Competition ELISA with rabbit anti-polypeptide P62 antibody on solid phase P62. As to conditions: antibody first incubated with competing polypeptide. The format is binding. How it is done: Anti-peptide antibody binding and inhibition studies were carried out by an enzyme-linked immunosorbent assay (ELISA) as described below.
Contact between the wells and antigen-containing solution was maintained for a predetermined time, typically 15 minutes, and at 20 degrees C., to form an antigen-coated solid phase. The solid and liquid phases were separated and the wells were washed three times with BBS.
Rabbit and human sera (body sample aliquots) were assayed for anti-polypeptide activity by adding 100 microliters of a serum diluted 1:20 in BBS per well to form a solid/liquid phase composition. Contact between the diluted sera and the antigen-coated solid phase was maintained for a predetermined time such as 1 hour, and at 20 degrees C., for an immunoreactant to form. The solid and liquid phases were separated, and the solid phase; i.e., antigen-coated, immunoreactant-containing wells, was then washed three times with BBS.

For series [3], the system named is EBNA. Nature of the series: Immunoblot of WI-L2 whole cell extracts with rabbit antipeptide antisera, blocking by polypeptide. The format is binding, Epstein-Barr virus. How it is done: Exemplary receptor molecules containing antibody combining sites of this invention raised in rabbits to the polypeptides shown in Table 1 were studied using the immunoblotting procedures of Towbin, et. al., Proc. Natl. Acad. Sci., U.S.A., 76:4350-4354 (1979) and Billings, et. al., Proc. Natl. Acad. Sci., U.S.A., 80:7104-7108 (1983). Further details are provided in the Materials and Methods section (III).
Extracts of EBNA producing and non-producing (control) cells were prepared to determine if receptor molecules of this invention were useful for diagnosing EBNA expression. Cells from cultures described hereinabove were washed in phosphate-buffered saline (PBS; 150 mM NaCl, 10 mM sodium phosphate, pH 7.4) containing 0.2 mM phenylmethylsulfonyl fluoride, swollen for 5 minutes in reticulocyte standard buffer (RSB; 10 mM NaCl, 10 mM Tris-HCl, pH 7.4, 1.5 mM MgCl2, 0.2 mM phenylmethylsulfonyl fluoride), and lysed by sonication in 3-5 volumes of RBS adjusted to 0.2-0.35 molar (M) NaCl. After 30 minutes on ice, the sonicate was centrifuged at 10,000×g for 15 minutes to remove cellular debris.
Cell extracts obtained above were assayed for EBNA using human sera known to contain anti-EBNA antibodies or exemplary receptor molecules of this invention. The extracts were either concentrated by precipitation with 2 volumes of ethanol at -20 degrees C. for about 18 hours, and were then dissolved in sample buffer [SB; 10% glycerol, 2% 2-mercaptoethanol, 1% sodium dodecyl sulfate (SDS), 0.002% bromphenol blue, 40 mM Tris-HCl (pH 7.4)] or diluted 1:6 in sample buffer for SDS-polyacrylamide gel electrophoresis (SDS-PAGE). 7.5% Polyacrylamide gels were cast and run according to the procedure of Laemmli, Nature, […] (1970), applying 50 to 200 micrograms of total protein per lane. […]
Anti-peptide antibodies bound to EBNA protein were detected by reacting the blots with an indicating means. […]
(Immunoblotting shows a protein as a band on a membrane.)

The nature of series [4]: Circular dichroism spectroscopy. Type of series: physicochemical. Particulars: 1 mg/ml in phosphate buffered saline. How it is done: The conformational properties of the polypeptides were investigated to elucidate any secondary structure that might be necessary for polypeptide immunoreaction with human anti-EBNA antibodies. The polypeptides were dissolved at a concentration of 1 mg/ml in phosphate-buffered saline (PBS). Spectra were taken using 1 ml samples in a Cary 61 spectropolarimeter (Cary Instruments, Applied Physics Corp., Monrovia, Calif.) interfaced and automated with a Digital Equipment Corporation 11/02 computer (Digital Equipment Corporation, Maynard, Mass.).
On the technique in general: Circular dichroism is widely used to follow secondary structure.

For the molecule `C[C@H](NC(=O)CNC(=O)CNC(=O)[C@H](C)NC(=O)CNC(=O)[C@H](C)NC(=O)CNC(=O)CNC(=O)CN)C(=O)NCC(=O)N[C@@H](C)C(=O)NCC(=O)NCC(=O)NCC(=O)NCC(=O)N[C@@H](CCCNC(=N)N)C(=O)O` [Polypeptide P60, H--Gly--Gly--Gly--Ala--Gly--Ala--Gly--Gly--Ala--Gly--Ala--Gly--Gly--Gly--Gly--Arg--OH] (H-GGGAGAGGAGAGGGGR-OH), the “Reactivity of sera of EBV non-immune donors to polypeptide” value in series [1] (27 EBV non-immune (VCA-) donors) was “None of the sera displayed significant reactivity”. Also, the “Number of anti-EBNA positive sera positive against (bound to) polypeptide” value in series [1] (91 ACIF anti-EBNA positive sera, 1:20 dilution) was found to be 91. In addition, the “Titer of PSS patients versus normals” value in series [1] (Progressive Systemic Schlerosis patients) is reported as “relatively higher average titer”. In addition, the “Reaction of VCA+ sera with polypeptide” value in series [1] (clinically normal VCA+ individuals, two dilutions) is given as “all of the VCA^+ individuals were positive”. In addition, in series [1] (panel of 19 VCA- sera), the “Reaction of VCA- sera with polypeptide” value was “None of the VCA^- sera were found to react positively”. Besides, the “OD405 × 10^3 obtained with Patient Antibodies to peptide” value in series [1] (MV post-mononucleosis) is 162 OD405 × 10^3; in series [1] (MV pre-mononucleosis) it was 72 OD405 × 10^3; in series [1] (SB post-mononucleosis), 115 OD405 × 10^3; in series [1] (SB pre-mononucleosis), 51 OD405 × 10^3; in series [1] (VCA+ Normal 1), 154 OD405 × 10^3; in series [1] (VCA+ Normal 2), 145 OD405 × 10^3. Further, the “OD405 × 10^3 obtained with Patient Antibodies to peptide” value in series [1] (VCA- Normals (n = 27), average ± one standard deviation) came to 45 ± 18 OD405 × 10^3. In addition, in series [2], the “Inhibition of binding of anti-polypeptide P62 to polypeptide P62 in the solid phase” value is recorded as 81%. Besides, in series [3] (serum 1:10, 40 ug/ml polypeptide P60, one hour), the “Immunoreactivity of anti-P62 serum with the EBNA band after preincubation with polypeptide” value is “inhibited”. Further, in series [3] (serum 1:50, 40 ug/ml polypeptide, one hour), the “Recognition of EBNA by anti-P60 serum after preincubation with polypeptide” value is recorded as “inhibited”. Moreover, the “Conformation by circular dichroism spectrum” value in series [4] is given as “very similar spectra”.
